Measured values published in PubChem BioAssay AID192 (DTP/NCI, 2004).
“And” between values parts separate entries of the source, which are not always exact repeats. Equal values may be shown once. Inconclusive results and toxic doses are left out.

Test system: BDF1 mice, B16 melanoma ip, median survival T/C
Experiment: NCI In Vivo Anticancer Drug Screen. Data for tumor model B16 Melanoma (intraperitoneal) in B6D2F1 (BDF1) mice
Settings: endpoint: median survival time, higher = longer survival
Procedure: The antitumor activity of compounds was measured in mice bearing transplantable tumors. Survival or tumor size were measured and the results are expressed as the measurement made in the treated group (T) divided by the measurement made in the vehicle treated control group (C). The tumor model used in this assay is B16 Melanoma (intraperitoneal) in B6D2F1 (BDF1) mice

[1] = dose: 12.5 mg/kg/injection, schedule: Q01DX009 (ip), vehicle: Klucel (hydroxypropylcellulose) (HPC)
[2] = dose: 50.0 mg/kg/injection, schedule: Q01DX009 (ip), vehicle: Klucel (hydroxypropylcellulose) (HPC)
[3] = dose: 50.0 mg/kg/injection, schedule: Q04DX003 (ip), vehicle: saline
[4] = dose: 100.0 mg/kg/injection, schedule: Q01DX009 (ip), vehicle: Klucel (hydroxypropylcellulose) (HPC)
[5] = dose: 12.5 mg/kg/injection, schedule: Q01DX009 (ip), vehicle: saline
[6] = dose: 25.0 mg/kg/injection, schedule: Q01DX009 (ip), vehicle: saline
[7] = dose: 50.0 mg/kg/injection, schedule: Q01DX009 (ip), vehicle: saline with Tween-80
[8] = dose: 50.0 mg/kg/injection, schedule: Q01DX009 (ip), vehicle: saline
[9] = dose: 6.25 mg/kg/injection, schedule: Q01DX009 (ip), vehicle: Klucel (hydroxypropylcellulose) (HPC)
[10] = dose: 100.0 mg/kg/injection, schedule: Q04DX003 (ip), vehicle: Klucel (hydroxypropylcellulose) (HPC)
[11] = dose: 200.0 mg/kg/injection, schedule: Q04DX003 (ip), vehicle: Klucel (hydroxypropylcellulose) (HPC)
[12] = dose: 400.0 mg/kg/injection, schedule: Q04DX003 (ip), vehicle: Klucel (hydroxypropylcellulose) (HPC)
[13] = dose: 100.0 mg/kg/injection, schedule: Q01DX009 (ip), vehicle: saline
[14] = dose: 200.0 mg/kg/injection, schedule: Q01DX009 (ip), vehicle: saline
[15] = dose: 100.0 mg/kg/injection, schedule: Q01DX009 (ip), vehicle: saline with Tween-80
[16] = dose: 200.0 mg/kg/injection, schedule: Q01DX009 (ip), vehicle: saline with Tween-80
[17] = dose: 400.0 mg/kg/injection, schedule: Q01DX009 (ip), vehicle: saline with Tween-80
[18] = dose: 12.5 mg/kg/injection, schedule: Q01DX009 (ip), vehicle: saline with Tween-80
[19] = dose: 25.0 mg/kg/injection, schedule: Q01DX009 (ip), vehicle: saline with Tween-80
[20] = dose: 200.0 mg/kg/injection, schedule: Q01DX009 (ip), vehicle: Klucel (hydroxypropylcellulose) (HPC)

Which T/C [1] does the source give for `O=C1C=CC(=O)O1` (tested in a mixture with another compound) here?
Its T/C is 124 % of control.

What about the T/C (dose: 12.5 mg/kg/injection, schedule: Q04DX003 (ip), vehicle: saline) of the same compound?
Its T/C is 111 % of control.

What about the T/C (dose: 18.75 mg/kg/injection, schedule: Q04DX003 (ip), vehicle: Klucel (hydroxypropylcellulose) (HPC)) of the same compound?
The T/C was 97 % of control.

What about the T/C (dose: 25.0 mg/kg/injection, schedule: Q04DX003 (ip), vehicle: saline) of the same compound?
Its T/C is 96 % of control and 121 % of control.

What about the T/C (dose: 37.5 mg/kg/injection, schedule: Q04DX003 (ip), vehicle: Klucel (hydroxypropylcellulose) (HPC)) of the same compound?
Its T/C is 150 % of control.

What about the T/C [2] of the same compound?
The T/C was 159 % of control.

And the T/C [3]?
The T/C was 120 % of control and 121 % of control.

And the T/C (dose: 75.0 mg/kg/injection, schedule: Q04DX003 (ip), vehicle: Klucel (hydroxypropylcellulose) (HPC))?
Its T/C is 161 % of control.

What about the T/C [4] of the same compound?
Its T/C is 150 % of control.

What about the T/C (dose: 150.0 mg/kg/injection, schedule: Q04DX003 (ip), vehicle: Klucel (hydroxypropylcellulose) (HPC)) of the same compound?
The T/C was 108 % of control and 208 % of control.

What about the T/C (dose: 200.0 mg/kg/injection, schedule: Q01DX009 (ip), vehicle: other) of the same compound?
Its T/C is 104 % of control.

What about the T/C (dose: 300.0 mg/kg/injection, schedule: Q04DX003 (ip), vehicle: Klucel (hydroxypropylcellulose) (HPC)) of the same compound?
Its T/C is 152 % of control and 184 % of control.

What about the T/C (dose: 400.0 mg/kg/injection, schedule: Q04DX003 (ip), vehicle: saline) of the same compound?
The T/C was 101 % of control.

`CC1CC(C)(O)CC(C(O)CC2CC(=O)NC(=O)C2)C1=O` (stereo not given) was tested. Which T/C (dose: 0.98 mg/kg/injection, schedule: Q04DX003 (ip), vehicle: saline) did it give?
Its T/C is 111 % of control.

And the T/C (dose: 1.4 mg/kg/injection, schedule: Q04DX003 (ip), vehicle: saline)?
The T/C was 100 % of control.

And the T/C (dose: 2.0 mg/kg/injection, schedule: Q04DX003 (ip), vehicle: saline)?
Its T/C is 91 % of control.

And the T/C (dose: 2.86 mg/kg/injection, schedule: Q04DX003 (ip), vehicle: saline)?
The T/C was 102 % of control.

How did the T/C [5] turn out when `CCOC(=O)C(C)C(=O)O` (stereo not given) was run?
Its T/C is 116 % of control.

And the T/C [6]?
The T/C was 101 % of control.

What about the T/C [7] of the same compound?
Its T/C is 99 % of control.

What about the T/C [8] of the same compound?
Its T/C is 98 % of control.

For `CCN(CC)CCCC(C)NC(C)CCCN(CC)CC` (stereo not given), which T/C [9] is on record?
The T/C was 101 % of control.

What about the T/C (dose: 6.25 mg/kg/injection, schedule: Q01DX009 (ip), vehicle: water) of the same compound?
The T/C was 98 % of control.

And the T/C [1]?
Its T/C is 95 % of control.

And the T/C (dose: 12.5 mg/kg/injection, schedule: Q01DX009 (ip), vehicle: water)?
Its T/C is 100 % of control.

With `COc1cccc2c1C(=O)c1c(O)c3c(c(O)c1C2=O)C[C@@](O)(C(=O)CO)C[C@@H]3OC1CC(N2CCOCC2C#N)C(O)C(C)O1` (stereo not given in full) as the compound, how does the T/C (dose: 37.5 micrograms/kg/injection, schedule: Q01DX001 (ip), vehicle: water) read?
Its T/C is 161 % of control.

With `CNC(Cc1ccccc1)c1ccc(OC)cc1` (stereo not given) as the compound, how does the T/C [2] read?
The T/C was 96 % of control.

And the T/C [4]?
The T/C was 96 % of control.

For `Nc1nc(Nc2ccccc2)nc(C(=O)O)n1`, which T/C [10] is on record?
The T/C was 100 % of control.

And the T/C [11]?
The T/C was 97 % of control.

And the T/C [12]?
The T/C was 92 % of control.

`CCOC1c2cc(OC)ccc2C(=O)CCN1S(=O)(=O)c1ccc(C)cc1` (stereo not given) was tested. Which T/C [10] did it give?
The T/C was 93 % of control.

And the T/C [11]?
The T/C was 102 % of control.

And the T/C [12]?
Its T/C is 102 % of control.

What does the source list for `CCCCOP(=O)(CCl)OCCCC`?
T/C [2]: 97 % of control; T/C [4]: 86 % of control

What does the source list for `C1CCC(C2OCCO2)CC1`?
T/C [3]: 90 % of control; T/C [13]: 113 % of control; T/C (dose: 100.0 mg/kg/injection, schedule: Q04DX003 (ip), vehicle: saline): 95 % of control; T/C [14]: 97 % of control; T/C (dose: 200.0 mg/kg/injection, schedule: Q04DX003 (ip), vehicle: saline): 90 % of control

How did the T/C [7] turn out when `CC(=Nc1ccccc1)C1=C(O)C(CC(C)C)NC1=O` (stereo not given) was run?
Its T/C is 107 % of control.

And the T/C [15]?
Its T/C is 103 % of control.

What about the T/C [16] of the same compound?
The T/C was 96 % of control.

What about the T/C [17] of the same compound?
The T/C was 88 % of control.

Which T/C (dose: 6.25 mg/kg/injection, schedule: Q01DX009 (ip), vehicle: saline with Tween-80) does the source give for `COc1ccccc1N=NC(C#N)C(N)=O` (stereo not given) here?
Its T/C is 91 % of control.

What about the T/C [18] of the same compound?
Its T/C is 94 % of control.

And the T/C [19]?
Its T/C is 87 % of control.

What about the T/C [7] of the same compound?
The T/C was 112 % of control.

With `C=CCN(CC=C)c1ccc(N(CC)CC)cc1` as the compound, how does the T/C (dose: 25.0 mg/kg/injection, schedule: Q04DX003 (ip), vehicle: Klucel (hydroxypropylcellulose) (HPC)) read?
Its T/C is 99 % of control.

What about the T/C (dose: 50.0 mg/kg/injection, schedule: Q04DX003 (ip), vehicle: Klucel (hydroxypropylcellulose) (HPC)) of the same compound?
The T/C was 102 % of control.

And the T/C [10]?
Its T/C is 88 % of control and 89 % of control.

For `CC(C)N1CSC(=S)N(Cc2ccccc2)C1`, which T/C [4] is on record?
Its T/C is 96 % of control.

And the T/C [20]?
The T/C was 105 % of control.

What does the source list for `OCCCN1CCCCC1CO` (stereo not given)?
T/C [5]: 101 % of control; T/C [6]: 99 % of control; T/C [8]: 103 % of control; T/C [13]: 90 % of control; T/C [14]: 116 % of control; T/C (dose: 400.0 mg/kg/injection, schedule: Q01DX009 (ip), vehicle: saline): 115 % of control

For `O=C(NC1CCCCC1)OCc1c(COC(=O)NC2CCCCC2)c(-c2ccc(Cl)c(Cl)c2)n2c1CCC2`, which T/C [18] is on record?
Its T/C is 169 % of control.

What about the T/C [19] of the same compound?
The T/C was 214 % of control.

What about the T/C (dose: 25.0 mg/kg/injection, schedule: Q01DX009 (oral), vehicle: saline with Tween-80) of the same compound?
The T/C was 107 % of control.

And the T/C [7]?
The T/C was 290 % of control.

What about the T/C (dose: 50.0 mg/kg/injection, schedule: Q01DX009 (oral), vehicle: saline with Tween-80) of the same compound?
The T/C was 102 % of control.

What about the T/C [15] of the same compound?
Its T/C is 304 % of control.

And the T/C (dose: 100.0 mg/kg/injection, schedule: Q01DX009 (oral), vehicle: saline with Tween-80)?
The T/C was 106 % of control.

What about the T/C [16] of the same compound?
Its T/C is 153 % of control.

What about the T/C (dose: 200.0 mg/kg/injection, schedule: Q01DX009 (oral), vehicle: saline with Tween-80) of the same compound?
Its T/C is 107 % of control.

What about the T/C [17] of the same compound?
Its T/C is 91 % of control.

And the T/C (dose: 400.0 mg/kg/injection, schedule: Q01DX009 (oral), vehicle: saline with Tween-80)?
The T/C was 106 % of control.

What about the T/C (dose: 800.0 mg/kg/injection, schedule: Q01DX009 (oral), vehicle: saline with Tween-80) of the same compound?
Its T/C is 102 % of control.

Which T/C [9] does the source give for `O=NO.O=N[O-].O=N[O-].[Co+3].[NH2-].[NH2-].[NH2-].[NH2-]` here?
The T/C was 88 % of control.

And the T/C [1]?
The T/C was 91 % of control.

What about the T/C (dose: 25.0 mg/kg/injection, schedule: Q01DX009 (ip), vehicle: Klucel (hydroxypropylcellulose) (HPC)) of the same compound?
Its T/C is 92 % of control and 101 % of control.

For `CCOc1ccc(C2NC(=O)c3ccccc3N2)cc1` (stereo not given), which T/C [4] is on record?
Its T/C is 105 % of control.

And the T/C [20]?
The T/C was 98 % of control.

What about the T/C (dose: 400.0 mg/kg/injection, schedule: Q01DX009 (ip), vehicle: Klucel (hydroxypropylcellulose) (HPC)) of the same compound?
Its T/C is 94 % of control.

`O=[N+]([O-])c1cc(Cl)c(Cl)cc1NS(=O)(=O)c1ccccc1` was tested. Which T/C (dose: 150.0 mg/kg/injection, schedule: Q01DX009 (ip), vehicle: saline with Tween-80) did it give?
Its T/C is 100 % of control.

And the T/C (dose: 300.0 mg/kg/injection, schedule: Q01DX009 (ip), vehicle: saline with Tween-80)?
Its T/C is 90 % of control.
